{"source": "patent US20250376461A1", "about": "“INDAZOLE DERIVATIVES FOR TREATING TRPM3-MEDIATED DISORDERS” (Katholieke Universiteit Leuven, priority 2022, published 2025)"}
{"target": "T1, mouse TRPM3α2 (mTRPM3) ion channel (Mus musculus, UniProt J9SQF3)", "T1 construct": "expressed in transfected cells; host or cells: flip-in HEK293", "T1 sequence (J9SQF3 1-1709 isoform J9SQF3-12)": "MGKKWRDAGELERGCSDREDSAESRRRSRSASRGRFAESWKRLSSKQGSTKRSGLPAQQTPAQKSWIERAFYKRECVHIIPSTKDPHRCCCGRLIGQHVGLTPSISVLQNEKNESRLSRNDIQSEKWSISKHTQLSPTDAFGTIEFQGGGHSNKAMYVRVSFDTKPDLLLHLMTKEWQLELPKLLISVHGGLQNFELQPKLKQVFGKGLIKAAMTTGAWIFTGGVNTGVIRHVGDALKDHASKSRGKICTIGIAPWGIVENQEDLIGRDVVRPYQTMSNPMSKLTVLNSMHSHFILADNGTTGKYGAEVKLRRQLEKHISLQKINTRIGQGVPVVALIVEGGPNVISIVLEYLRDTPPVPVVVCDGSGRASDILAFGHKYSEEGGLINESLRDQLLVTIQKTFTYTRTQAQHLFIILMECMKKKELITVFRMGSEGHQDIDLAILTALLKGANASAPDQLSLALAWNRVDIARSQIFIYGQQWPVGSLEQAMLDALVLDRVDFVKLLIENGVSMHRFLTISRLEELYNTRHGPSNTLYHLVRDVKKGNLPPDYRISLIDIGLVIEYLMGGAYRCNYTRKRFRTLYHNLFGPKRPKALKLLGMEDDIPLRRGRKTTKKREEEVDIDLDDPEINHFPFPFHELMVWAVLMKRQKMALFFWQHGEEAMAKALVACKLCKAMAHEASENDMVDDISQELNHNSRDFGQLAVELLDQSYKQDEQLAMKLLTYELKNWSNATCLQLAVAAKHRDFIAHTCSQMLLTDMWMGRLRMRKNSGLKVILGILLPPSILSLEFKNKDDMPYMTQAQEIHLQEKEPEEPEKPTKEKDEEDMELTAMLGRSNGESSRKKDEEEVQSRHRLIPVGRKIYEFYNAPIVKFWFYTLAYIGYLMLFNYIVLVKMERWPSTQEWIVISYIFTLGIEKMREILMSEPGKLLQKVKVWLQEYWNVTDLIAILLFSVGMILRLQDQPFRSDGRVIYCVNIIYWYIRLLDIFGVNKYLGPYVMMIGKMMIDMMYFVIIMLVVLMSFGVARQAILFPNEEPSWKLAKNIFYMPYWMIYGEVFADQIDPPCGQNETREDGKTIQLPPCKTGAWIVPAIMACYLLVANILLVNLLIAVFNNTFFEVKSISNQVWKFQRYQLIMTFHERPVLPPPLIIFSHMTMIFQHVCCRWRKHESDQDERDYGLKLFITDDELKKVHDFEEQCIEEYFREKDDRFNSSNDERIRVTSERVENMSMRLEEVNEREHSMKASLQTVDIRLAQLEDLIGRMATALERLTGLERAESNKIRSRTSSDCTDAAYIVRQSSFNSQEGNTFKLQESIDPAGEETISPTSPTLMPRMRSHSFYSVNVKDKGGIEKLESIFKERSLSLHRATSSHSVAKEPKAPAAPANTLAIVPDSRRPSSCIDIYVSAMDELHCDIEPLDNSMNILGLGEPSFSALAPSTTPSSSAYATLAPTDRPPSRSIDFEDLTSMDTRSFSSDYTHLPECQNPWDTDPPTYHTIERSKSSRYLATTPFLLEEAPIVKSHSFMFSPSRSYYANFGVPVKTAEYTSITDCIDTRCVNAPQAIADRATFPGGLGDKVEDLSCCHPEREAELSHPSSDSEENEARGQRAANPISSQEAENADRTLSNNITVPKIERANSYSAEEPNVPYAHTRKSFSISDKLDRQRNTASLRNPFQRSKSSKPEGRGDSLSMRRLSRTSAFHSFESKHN", "test": "TRPM3 ion channel driven Ca2+ uptake, Fluo-4 AM assay, mTRPM3alpha2 overexpressing flip-in HEK293 cells stimulated with pregnenolone sulfate (50 μM)", "assay_type": "cell-based", "details": "mTRPM3 overexpressing HEK293 cells stimulated with pregnenolone sulfate (50 μM), activity ranges A, B, C", "in_short": "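Flip-in HEK293 cells overexpressing mTRPM3α2, loaded with Fluo-4 AM, added at ±2000 cells/well to plates holding compound plus 50 μM pregnenolone sulfate in Ca2+-containing Krebs buffer. Fluorescence (ex 485/em 535 nm) read immediately. Percent inhibition normalised between vehicle and positive-control inhibitor; IC50 derived.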", "units": {"IC50": "nM"}}
{"smiles": "Cn1nc2ccc(OCc3ccccn3)cc2c1C(=O)NC(CO)C(F)(F)F", "note": "(single isomer, unassigned) [Cpd 254 - En1]", "IC50": "1000 to 20000"}
{"smiles": "Cn1nc2ccc(OCc3ccccn3)cc2c1C(=O)NC(CO)C(F)(F)F", "note": "(single isomer, unassigned) [Cpd 254 - En2]", "IC50": "> 20000"}
{"smiles": "Cn1nc2ccc(OCc3ccccn3)cc2c1C(=O)NC(C)(CO)CC(F)(F)F", "note": "(single isomer, unassigned) [Cpd 255 - En1, 2-methyl-5-[(pyridin-2-yl)methoxy]-N-(4,4,4-trifluoro-1-hydroxy-2-methylbutan-2-yl)-2H-indazole-3-carboxamide]", "IC50": "1000 to 20000"}
{"smiles": "Cn1nc2ccc(OCc3ccccn3)cc2c1C(=O)NC(C)(CO)CC(F)(F)F", "note": "(single isomer, unassigned) [Cpd 255 - En2, 2-methyl-5-[(pyridin-2-yl)methoxy]-N-(4,4,4-trifluoro-1-hydroxy-2-methylbutan-2-yl)-2H-indazole-3-carboxamide]", "IC50": "1000 to 20000"}
{"smiles": "COCC(C)(CO)NC(=O)c1c2cc(OCc3ccccn3)ccc2nn1C", "note": "(single isomer, unassigned) [Cpd 258 - En1]", "IC50": "1000 to 20000"}
{"smiles": "COCC(C)(CO)NC(=O)c1c2cc(OCc3ccccn3)ccc2nn1C", "note": "(single isomer, unassigned) [Cpd 258 - En2]", "IC50": "1000 to 20000"}
{"smiles": "Cc1ncsc1COc1ccc2nn(C)c(C(=O)NC3(CO)CCOCC3)c2c1", "note": "[Cpd 001, N-[4-(hydroxymethyl)oxan-4-yl]-2-methyl-5-[(4-methyl-1,3-thiazol-5-yl)methoxy]-2H-indazole-3-carboxamide]", "IC50": "1000 to 20000"}
{"smiles": "Cn1nc2ccc(OCc3ccccc3)cc2c1C(=O)NC1(CO)CC1", "note": "[Cpd 004, 5-(benzyloxy)-N-[1-(hydroxymethyl)cyclopropyl]-2-methyl-2H-indazole-3-carboxamide]", "IC50": "1000 to 20000"}
{"smiles": "Cc1ncsc1COc1ccc2nn(C)c(C(=O)NC(C)(C)CO)c2c1", "note": "[Cpd 005, N-(1-hydroxy-2-methylpropan-2-yl)-2-methyl-5-[(4-methyl-1,3-thiazol-5-yl)methoxy]-2H-indazole-3-carboxamide]", "IC50": "1000 to 20000"}
{"smiles": "Cn1ccc(NC(=O)c2c3cc(OCc4ccnn4C)ccc3nn2C)n1", "note": "[Cpd 006, 2-methyl-N-(1-methyl-1H-pyrazol-3-yl)-5-[(1-methyl-1H-pyrazol-5-yl)methoxy]-2H-indazole-3-carboxamide]", "IC50": "> 20000"}
{"smiles": "Cn1nc2ccc(OCc3cccnc3C(F)(F)F)cc2c1C(=O)NC1CCNC1=O", "note": "(centres unmarked) [Cpd 007, 2-methyl-N-(2-oxopyrrolidin-3-yl)-5-{[2-(trifluoromethyl)pyridin-3-yl]methoxy}-2H-indazole-3-carboxamide]", "IC50": "< 1000"}
{"smiles": "Cn1nc2ccc(OCc3ccccc3)cc2c1C(=O)NC1CCNC1=O", "note": "(centres unmarked) [Cpd 008, 5-(benzyloxy)-2-methyl-N-(2-oxopyrrolidin-3-yl)-2H-indazole-3-carboxamide]", "IC50": "1000 to 20000"}
{"smiles": "Cn1nccc1COc1ccc2nn(C)c(C(=O)NC(C)(CO)CO)c2c1", "note": "[Cpd 009, N-(1,3-dihydroxy-2-methylpropan-2-yl)-2-methyl-5-[(1-methyl-1H-pyrazol-5-yl)methoxy]-2H-indazole-3-carboxamide]", "IC50": "1000 to 20000"}
{"smiles": "Cn1nccc1COc1ccc2nn(C)c(C(=O)NCC(C)(C)CO)c2c1", "note": "[Cpd 012, N-(3-hydroxy-2,2-dimethylpropyl)-2-methyl-5-[(1-methyl-1H-pyrazol-5-yl)methoxy]-2H-indazole-3-carboxamide]", "IC50": "1000 to 20000"}
{"smiles": "Cn1ccc(NC(=O)c2c3cc(OCc4cccnc4C(F)(F)F)ccc3nn2C)n1", "note": "[Cpd 013, 2-methyl-N-(1-methyl-1H-pyrazol-3-yl)-5-{[2-(trifluoromethyl)pyridin-3-yl]methoxy}-2H-indazole-3-carboxamide]", "IC50": "1000 to 20000"}
{"smiles": "Cn1ccc(NC(=O)c2c3cc(OCc4ccccc4)ccc3nn2C)n1", "note": "[Cpd 014, 5-(benzyloxy)-2-methyl-N-(1-methyl-1H-pyrazol-3-yl)-2H-indazole-3-carboxamide]", "IC50": "1000 to 20000"}
{"smiles": "Cn1nccc1COc1ccc2nn(C)c(C(=O)NC(C)(C)CO)c2c1", "note": "[Cpd 015, N-(1-hydroxy-2-methylpropan-2-yl)-2-methyl-5-[(1-methyl-1H-pyrazol-5-yl)methoxy]-2H-indazole-3-carboxamide]", "IC50": "1000 to 20000"}
{"smiles": "Cn1nc2ccc(OCc3cccnc3C(F)(F)F)cc2c1C(=O)NC(C)(CO)CO", "note": "[Cpd 016, N-(1,3-dihydroxy-2-methylpropan-2-yl)-2-methyl-5-{[2-(trifluoromethyl)pyridin-3-yl]methoxy}-2H-indazole-3-carboxamide]", "IC50": "< 1000"}
{"smiles": "Cn1nc2ccc(OCc3ccccc3)cc2c1C(=O)NC(C)(CO)CO", "note": "[Cpd 017, 5-(benzyloxy)-N-(1,3-dihydroxy-2-methylpropan-2-yl)-2-methyl-2H-indazole-3-carboxamide]", "IC50": "1000 to 20000"}
{"smiles": "Cc1ncsc1COc1ccc2nn(C)c(C(=O)Nc3ccn(C)n3)c2c1", "note": "[Cpd 018, 2-methyl-5-[(4-methyl-1,3-thiazol-5-yl)methoxy]-N-(1-methyl-1H-pyrazol-3-yl)-2H-indazole-3-carboxamide]", "IC50": "1000 to 20000"}
{"smiles": "Cn1nc2ccc(OCc3cccnc3C(F)(F)F)cc2c1C(=O)NCC(C)(C)CO", "note": "[Cpd 019, N-(3-hydroxy-2,2-dimethylpropyl)-2-methyl-5-{[2-(trifluoromethyl)pyridin-3-yl]methoxy}-2H-indazole-3-carboxamide]", "IC50": "> 20000"}
{"smiles": "Cn1nc2ccc(OCc3ccccc3)cc2c1C(=O)NCC(C)(C)CO", "note": "[Cpd 020, 5-(benzyloxy)-N-(3-hydroxy-2,2-dimethylpropyl)-2-methyl-2H-indazole-3-carboxamide]", "IC50": "1000 to 20000"}
{"smiles": "Cc1ncsc1COc1ccc2nn(C)c(C(=O)NC(C)(CO)CO)c2c1", "note": "[Cpd 021, N-(1,3-dihydroxy-2-methylpropan-2-yl)-2-methyl-5-[(4-methyl-1,3-thiazol-5-yl)methoxy]-2H-indazole-3-carboxamide]", "IC50": "< 1000"}
{"smiles": "Cn1nc2ccc(OCc3cccnc3C(F)(F)F)cc2c1C(=O)NC1(CO)CC1", "note": "[Cpd 022, N-[1-(hydroxymethyl)cyclopropyl]-2-methyl-5-{[2-(trifluoromethyl)pyridin-3-yl]methoxy}-2H-indazole-3-carboxamide]", "IC50": "1000 to 20000"}
{"smiles": "Cn1nc2ccc(OCc3ccccc3)cc2c1C(=O)NC(C)(C)CO", "note": "[Cpd 023, 5-(benzyloxy)-N-(1-hydroxy-2-methylpropan-2-yl)-2-methyl-2H-indazole-3-carboxamide]", "IC50": "1000 to 20000"}
{"smiles": "Cc1ncsc1COc1ccc2nn(C)c(C(=O)NCC(C)(C)CO)c2c1", "note": "[Cpd 024, N-(3-hydroxy-2,2-dimethylpropyl)-2-methyl-5-[(4-methyl-1,3-thiazol-5-yl)methoxy]-2H-indazole-3-carboxamide]", "IC50": "1000 to 20000"}
{"smiles": "Cn1nc2ccc(OCc3ccccc3)cc2c1C(=O)NCc1cccc(O)n1", "note": "[Cpd 025, 5-(benzyloxy)-N-[(6-hydroxypyridin-2-yl)methyl]-2-methyl-2H-indazole-3-carboxamide]", "IC50": "< 1000"}
{"smiles": "Cn1nc2ccc(OCc3cccnc3C(F)(F)F)cc2c1C(=O)NC(CO)C(N)=O", "note": "(centres unmarked) [Cpd 026, 3-hydroxy-2-[(2-methyl-5-{[2-(trifluoromethyl)pyridin-3-yl]methoxy}-2H-indazol-3-yl)formamido]propanamide]", "IC50": "< 1000"}
{"smiles": "Cn1nccc1COc1ccc2nn(C)c(C(=O)NC(CO)C(N)=O)c2c1", "note": "(centres unmarked) [Cpd 027, 3-hydroxy-2-({2-methyl-5-[(1-methyl-1H-pyrazol-5-yl)methoxy]-2H-indazol-3-yl}formamido)propanamide]", "IC50": "1000 to 20000"}
